Where two headings read alike, the source gives them in different places.
Key:
[1] = Pharmacological (behavioral) signs after percutaneous diazepam in animal models, e.g. rhesus monkey; type: in vivo; settings: percutaneous administration, blood level of approximately 100 ng/ml
[2] = From the text: Rat full thickness skins were used in the following two types of diffusion cell methods.
The skin was excised from the shaved abdominal site of deceased male albino rats weighing 250~300 g, and washed with normal saline solution after the subcutaneous fat was carefully removed with scissors.
Probl. Dermatol., Vol. 7, p. […] The rat skin was mounted horizontally in a diffusion cell apparatus; the exposed area of the skin approximated 0.7 cm^2.
The active agent/PEAC solution of known concentration was added to the upper compartment of the cell, which was exposed to the epithelial side of the skin and a normal saline solution was placed in the lower compartment.
The penetration rate was studied in a thermostated bath at 30° C.
(§1) In all instances the in vitro diffusion cell technique or the in vivo rhesus monkey test earlier described were used. In all instances analysis was by conventional HPLC (high pressure liquid chromatography). Details and citations are given for illustrative techniques.
Detection was in a conventional manner via HPLC using a mobile phase of 70% A (0.5 acetic acid (v/v) with 1.0 g/l sodium pentane sulfonate) and 30% B (90% acetonitrile and 10% H2 O (v/v) with 1.0 g/l sodium pentane sulfonate); the columnn was ASI C18 300×3.9 mm and the flow rate was 2 ml/min by UV at 267 nm.

Remark: listed apart in the source
in vivo = settings: rhesus monkey, topical or ocular, In Vivo - Monkey Plasma, 200 mg on 49 cm^2, 25% ethyl laurate in N-methyl pyrrolidone
Experimental: Male rhesus monkeys weighing 10-14 Kg each were used as the subject. An appropriate area of the monkey's chest was shaved 24 hours before drug application.
Drug formulations comprising the PEAC were applied to a certain area of the chest as indicated in each example. The monkey was restrained in a chair to prevent it from touching its chest.
Blood samples were taken at appropriate intervals after the application. The heparinized blood was centrifuged, and the plasma was removed and stored at -20° C. until analyzed. […]
To this solution was added 120 mg of Klucel® (cross-linked hydroxypropylcellulose type HF, Hercules Inc.) and the same stirred thoroughly to obtain a uniform gel.
1.0 ml of the gel was applied to 49 cm^2 of the chest area of the monkey; the applied area was left open to the air for the duration of the experiment.
as §1
To this solution was added 120 mg of hydroxypropylcellulose (Klucel® HF). […]

[3] = 2 hrs, I: 25 mg drug + 25% isopropyl myristate in N-methyl pyrrolidone
[4] = 2 hrs, II: 25 mg drug + 25% isopropyl myristate in N-methyl piperidone
[5] = 2 hrs, III: 25 mg drug + 25% isopropyl myristate in N-methyl caprolactam
[6] = 2 hrs, IV: 25 mg drug + 25% ethyl laurate in N-methyl pyrrolidone
[7] = 4 hrs, I: 25 mg drug + 25% isopropyl myristate in N-methyl pyrrolidone
[8] = 4 hrs, II: 25 mg drug + 25% isopropyl myristate in N-methyl piperidone
[9] = 4 hrs, III: 25 mg drug + 25% isopropyl myristate in N-methyl caprolactam
[10] = 4 hrs, IV: 25 mg drug + 25% ethyl laurate in N-methyl pyrrolidone
[11] = 6 hrs, I: 25 mg drug + 25% isopropyl myristate in N-methyl pyrrolidone
[12] = 6 hrs, II: 25 mg drug + 25% isopropyl myristate in N-methyl piperidone
[13] = 6 hrs, III: 25 mg drug + 25% isopropyl myristate in N-methyl caprolactam
[14] = 6 hrs, IV: 25 mg drug + 25% ethyl laurate in N-methyl pyrrolidone
[15] = 8 hrs, I: 25 mg drug + 25% isopropyl myristate in N-methyl pyrrolidone
[16] = 8 hrs, II: 25 mg drug + 25% isopropyl myristate in N-methyl piperidone
[17] = 8 hrs, III: 25 mg drug + 25% isopropyl myristate in N-methyl caprolactam
[18] = 8 hrs, IV: 25 mg drug + 25% ethyl laurate in N-methyl pyrrolidone
[19] = Comparative Composition B: active agent 3 g in 97 g dimethyl propionamide
[20] = Comparative Composition C: active agent 3 g in 97 g acetone, acetone evaporated off
[21] = Composition A: active agent 3 g in 97 g of 25 volume % isopropyl myristate in dimethyl propionamide

SMILES | flux [2, 3] [μg/cm^2 /hr] | flux [2, 4] [μg/cm^2 /hr] | flux [2, 5] [μg/cm^2 /hr] | flux [2, 6] [μg/cm^2 /hr] | flux [2, 7] [μg/cm^2 /hr] | flux [2, 8] [μg/cm^2 /hr] | flux [2, 9] [μg/cm^2 /hr] | flux [2, 10] [μg/cm^2 /hr] | flux [2, 11] [μg/cm^2 /hr] | flux [2, 12] [μg/cm^2 /hr] | flux [2, 13] [μg/cm^2 /hr] | flux [2, 14] [μg/cm^2 /hr] | flux [2, 15] [μg/cm^2 /hr] | flux [2, 16] [μg/cm^2 /hr] | flux [2, 17] [μg/cm^2 /hr] | flux [2, 18] [μg/cm^2 /hr] | flux [19] [μg/cm^2 /24 hrs] | flux [20] [μg/cm^2 /24 hrs] | flux [21] [μg/cm^2 /24 hrs] | also measured
CN1C(=O)CN=C(c2ccccc2)c2cc(Cl)ccc21 [Diazepam, 7-Chloro-1,3-dihydro-1-methyl-5-phenyl-2H-1,4-benzodiazepine-2-one] |  |  |  |  |  |  |  |  |  |  |  |  |  |  |  |  |  |  |  | pharmacological (behavioral) signs [1]: produces pharmacological (behavioral) signs of therapeutic effectiveness
CC(C)Cc1ccc(C(C)C(=O)O)cc1 (stereo not drawn) [Ibuprofen, p-isobutylhydratropic acid] | 154.0 | 142.0 | 33.3 | 192.8 | 95.6 | 79.2 | 90.7 | 93.0 | 53.9 | 46.1 | 76.4 | 47.5 | 49.6 | 40.4 | 63.2 | 40.0 | 835 | 242 | 1085 | 
COc1ccc2c(c1)c(CC(=O)O)c(C)n2C(=O)c1ccc(Cl)cc1 [Indomethacin, 1-(p-chlorobenzoyl)-5-methoxy-2-methylindole-3-acetic acid] | 65.1 | 55.7 | 11.3 | 89.5 | 39.0 | 49.3 | 56.8 | 63.7 | 21.5 | 29.3 | 41.3 | 23.0 | 13.2 | 15.1 | 21.8 | 13.9 | 150 | 30 | 394 | concentration at 1 h (in vivo; 1 hour): 370 ng/mL; concentration at 2 h (in vivo; 2 hours): 505 ng/mL; concentration at 3 h (in vivo; 3 hours): 420 ng/mL; concentration at 5 h (in vivo; 5 hours as printed): 110 ng/mL; concentration at 5 h (in vivo; 5 hours): 225 ng/mL
COC(=O)C1=C(C)NC(C)=C(C(=O)OC)C1c1ccccc1[N+](=O)[O-] [Nifedipine] |  |  |  |  |  |  |  |  |  |  |  |  |  |  |  |  |  |  |  | flux ([2]; 2 hrs, V (control): 25 mg drug in 1 ml N-methyl pyrrolidone): < 2 μg/cm^2 /hr; flux ([2]; 4 hrs, V (control): 25 mg drug in 1 ml N-methyl pyrrolidone): 2.7 μg/cm^2 /hr; flux ([2]; 6 hrs, V (control): 25 mg drug in 1 ml N-methyl pyrrolidone): 8.1 μg/cm^2 /hr; flux ([2]; 8 hrs, V (control): 25 mg drug in 1 ml N-methyl pyrrolidone): 3.9 μg/cm^2 /hr
O=C(O)c1ccccc1Nc1cccc(C(F)(F)F)c1 [flufenamic acid, N-(3'-trifluoro-methylphenyl)-anthranilic acid] |  |  |  |  |  |  |  |  |  |  |  |  |  |  |  |  | 311 | 26 | 598 | 
